Source: publication PMC10179075 (International Journal of Molecular Sciences, 2023)
Positions count from the first letter of the chain named. Like-named read-outs stand apart in the source and are kept apart here.

Legend:
[1] = target: T1, natural (wild type) E. indica EPSPS (EiEPSPS), recombinant expressed in E. coli (Eleusine indica, UniProt Q95AK0); experiment: ForteBio Octet binding kinetics, wild type EPSPS
T1 sequence (Q95AK0 43-445): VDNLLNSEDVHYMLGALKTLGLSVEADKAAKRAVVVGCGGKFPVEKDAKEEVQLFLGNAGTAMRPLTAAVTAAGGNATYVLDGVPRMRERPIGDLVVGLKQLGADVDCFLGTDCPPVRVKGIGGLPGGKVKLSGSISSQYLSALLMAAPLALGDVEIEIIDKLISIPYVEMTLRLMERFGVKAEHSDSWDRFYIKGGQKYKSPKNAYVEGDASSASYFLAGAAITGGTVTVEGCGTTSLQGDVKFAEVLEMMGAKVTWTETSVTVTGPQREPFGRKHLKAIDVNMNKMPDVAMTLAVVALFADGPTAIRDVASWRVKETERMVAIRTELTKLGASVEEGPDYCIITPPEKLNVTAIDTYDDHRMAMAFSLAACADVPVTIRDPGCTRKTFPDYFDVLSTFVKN
Description: (§1) Target EPSPS genes with different mutations were amplified through PCR using primers (Supplementary Table S4) and the synthesised cDNA, then cloned into the BamHI and HindIII cleavage sites of the pET-28a expression vector (New England Biolabs Inc., Ipswich, MA, USA). After DNA sequencing, the pET-28a plasmid (Thermo Fisher Scientific Inc., Waltham MA, USA) containing the target genes was transformed into BL21 (DE3) cells (Thermo Fisher Scientific Inc.). Selected clones were cultured in Luria-Bertani medium. Cells containing target genes that had grown to an OD600 of 0.5 were induced with […] IPTG (0487; Amresco LLC, Solon, OH, USA) at 37 °C for 4 h. The cells were then pelleted through centrifugation at 10,000× g for 10 min and resuspended in 50 mM Tris-HCl and 150 mM NaCl, pH 7.4 (buffer A). The suspension was sonicated and centrifuged at 12,000× g for 30 min, the supernatant was filtered through a 0.22 µm membrane and passed through a HiTrap His column (10318950; Cytiva, Global Life Sciences Solutions USA, LLC., Marlborough, MA, USA). […] Target protein concentrations were determined using the Bradford method (500-0001) with Dye Reagent (both from Bio-Rad Laboratories Inc., Hercules, CA, USA).
To prevent primary amines reducing the biotinylation ratio, the EPSPS and mutations were exchanged with PBS buffer using a PD10 desalting column (17085101; Cytiva, Global Life Sciences Solutions USA, LLC.) as described by the manufacturer. The proteins were then concentrated using an ultrafilter (Merck KGaA, Darmstadt, Germany), then the concentrations were determined, as described above. […] A mixture of protein and sulfo-NHS-LC-biotin at a molar ratio of 1:5 was incubated at 4 °C for 16 h, then free biotin molecules were removed using a PD10 desalting column and biotinylated protein concentrations were measured using the Bradford method. […]
(§2) Data for protein-small molecule binding studies and curve fitting were analysed using ForteBio Data Analysis Software v. […]

[2] = target: E. indica EPSPS Pro106Leu (P106L) mutant, recombinant expressed in E. coli (Eleusine indica, UniProt Q95AK0, P107L); experiment: biochemical; format: binding
Description: (§3) Target EPSPS genes with different mutations were amplified through PCR using primers (Supplementary Table S4) and the synthesised cDNA, then cloned into the BamHI and HindIII cleavage sites of the pET-28a expression vector (New England Biolabs Inc., Ipswich, MA, USA). After DNA sequencing, the pET-28a plasmid (Thermo Fisher Scientific Inc., Waltham MA, USA) containing the target genes was transformed into BL21 (DE3) cells (Thermo Fisher Scientific Inc.). Selected clones were cultured in Luria-Bertani medium. Cells containing target genes that had grown to an OD600 of 0.5 were induced with […] IPTG (0487; Amresco LLC, Solon, OH, USA) at 37 °C for 4 h. The cells were then pelleted through centrifugation at 10,000× g for 10 min and resuspended in 50 mM Tris-HCl and 150 mM NaCl, pH 7.4 (buffer A). The suspension was sonicated and centrifuged at 12,000× g for 30 min, the supernatant was filtered through a 0.22 µm membrane and passed through a HiTrap His column (10318950; Cytiva, Global Life Sciences Solutions USA, LLC., Marlborough, MA, USA). Target proteins were eluted with 50 mM Tris-HCl, 150 mM NaCl, 500 mM imidazole, pH 7.4 (buffer B), resolved through SDS-PAGE, and identified through MALDI-TOF mass spectrometry. Target protein concentrations were determined using the Bradford method (500-0001) with Dye Reagent (both from Bio-Rad Laboratories Inc., Hercules, CA, USA).
(§4) To prevent primary amines reducing the biotinylation ratio, the EPSPS and mutations were exchanged with PBS buffer using a PD10 desalting column (17085101; Cytiva, Global Life Sciences Solutions USA, LLC.) as described by the manufacturer. The proteins were then concentrated using an ultrafilter (Merck KGaA, Darmstadt, Germany), then the concentrations were determined, as described above. The proteins were biotinylated using the EZ-Link™ Sulfo-NHS-LC-biotinylation kit (21435; Thermo Fisher Scientific Inc.) as described by the manufacturer. A mixture of protein and sulfo-NHS-LC-biotin at a molar ratio of 1:5 was incubated at 4 °C for 16 h, then free biotin molecules were removed using a PD10 desalting column and biotinylated protein concentrations were measured using the Bradford method.
(§5) We used a ForteBio Octet 96 with high-capacity Super Streptavidin (SSA) biosensors (18-5057; Sartorius Stedim Biotech GmbH, Göttingen, Germany) to study the protein-small molecule binding, and to derive the relevant kinetic data, as well as the affinity constants. The SSA sensors were activated in 50 mM HEPES buffer (pH 7.5) containing 0.02% Tween 20 (v/v) for 10 min, then biotinylated proteins were loaded onto them online for 2 min. Thereafter, the sensors were quenched with 2 μg mL^−1 of biocytin (B1592 Thermo Fisher Scientific Inc.) for 60 s. […] To obtain accurate interaction kinetics, a reference well (containing only buffer) and a reference biosensor were included in the assay for double subtraction analysis.
(§6) Data for protein-small molecule binding studies and curve fitting were analysed using ForteBio Data Analysis Software v. 9.0. Dissociation constants (KD) indicating binding affinity for protein-small molecules were derived by determining Kon and Koff (association and disassociation rate constants, respectively); KD = Koff/Kon.

[3] = target: E. indica EPSPS Pro106Ser (P106S) mutant, recombinant expressed in E. coli (Eleusine indica, UniProt Q95AK0, P107S); experiment: biochemical; format: binding
Description: as §3, §4, §5, §6

[4] = target: E. indica EPSPS Thr102Ile + Pro106Ser (TIPS) mutant, recombinant expressed in E. coli (Eleusine indica, UniProt Q95AK0, P107S/T103I); experiment: biochemical; format: binding
Description: as §3, §4, §5, §6

[5] = tested on: E. indica LL population (homozygous P106L in EPSPS); experiment: Whole-plant dose-response assay, LL population; format: in vivo, Eleusine indica; settings: glyphosate alone, fresh weight at 21 DAT, value ± SE
Description: (§7) Plants with homozygous mutations Pro106Ser (P106S), Pro106Leu (P106L), Thr102Ile + Pro106Ser (TIPS), and WT were screened from a population with a similar background, as we previously described. […] Plants with the same confirmed genotype were cultured (bulk in isolation) and the seeds were produced and purified. The purified subpopulations were named SS, LL, IISS, and WT. […] The plants were cultured under greenhouse conditions of day and night temperatures of 30 °C and 20 °C (±2 °C), respectively, with a relative humidity of 60% ± 20%, and a 14-h photoperiod, during which LEDs provided light intensity of 300 μmol m^−2 s^−1. After thinning, eight plants per pot were maintained. […] [18]. Thereafter, P450- (10 mM piperonylbutoxide) and GST-inhibitors (3 mM 4-chloro-7-nitro-1, 2, 3-benzoxadiazole) were sprayed to exclude other non-target-site resistance mechanisms. […] Water and inhibitors were applied through control spraying (Supplementary Tables S1 and S3). The fresh weight of the fresh aboveground tissues was measured at 21 DAT. Whole-plant assays were repeated twice in a completely randomised design.
(§8) Data from the whole-plant assays and emerged seedlings were analysed through nonlinear regression using a log-logistic model: y = y0 + a/[1 + (x/x0)^b] in SigmaPlot 12.0 (Systat Software, San Jose, CA, USA).

[6] = tested on: E. indica SS population (homozygous P106S in EPSPS); experiment: Whole-plant dose-response assay, SS population; format: in vivo, Eleusine indica; settings: glyphosate alone, fresh weight at 21 DAT, value ± SE
Description: as §7, §8

[7] = tested on: E. indica IISS population (homozygous TIPS in EPSPS); experiment: Whole-plant dose-response assay, IISS population; format: in vivo, Eleusine indica; settings: glyphosate alone, fresh weight at 21 DAT, value ± SE
Description: as §7, §8

wild type (WT) E. indica = experiment: Shikimate accumulation assay, WT population; format: in vivo, Eleusine indica; settings: 1800 g a.e. ha^−1 (7.1 mM) glyphosate, seven DAT
Description: Leaf tissue samples collected on 1, 3, 5, and 7 DAT were finely ground in liquid nitrogen, added to 1.0 mL of 0.25 mol L^−1 cold HCl, and centrifuged at 12,000 rpm for 30 min. Supernatants (0.2 mL) were incubated with 2 mL of 1% periodic acid for 3 h at room temperature. Thereafter, 2 mL of 1 mol L^−1 NaOH and 1.2 mL of 0.1 mol L^−1 glycine were added, then the optical density of 0.2 mL/well was determined in 96-well plates at 380 nm using a Tecan Infinite 200 Pro plate reader (Tecan Group Ltd., Männedorf, Switzerland). The results for all samples were compared with a standard curve of 0.1–400.0 μg shikimate and are expressed as μg of shikimate g^−1 fresh tissue. This experiment was repeated twice.

[8] = target: E. indica EPSPS enzymes (WT, P106L, P106S, TIPS); experiment: ForteBio Octet binding, range over the EPSPS enzymes; design: species or system Eleusine indica
Description: as §1, with “h.” for “h. The cells were then pelleted through centrifugation at 10,000× g for 10 min and resuspended in 50 mM Tris-HCl and 150 mM NaCl, pH 7.4 (buffer A). The suspension was sonicated and centrifuged at 12,000× g for 30 min, the supernatant was filtered through a 0.22 µm membrane and passed through a HiTrap His column (10318950; Cytiva, Global Life Sciences Solutions USA, LLC., Marlborough, MA, USA).”
To prevent primary amines reducing the biotinylation ratio, the EPSPS and mutations were exchanged with PBS buffer using a PD10 desalting column (17085101; Cytiva, Global Life Sciences Solutions USA, LLC.) as described by the manufacturer. The proteins were then concentrated using an ultrafilter (Merck KGaA, Darmstadt, Germany), then the concentrations were determined, as described above. […]
as §2

[9] = target: T2, His-tagged recombinant EiEPSPS, Pro106Ser (SS) (Eleusine indica, UniProt Q95AK0, P107S); experiment: EPSPS Michaelis-Menten kinetics, Pro106Ser; format: biochemical; settings: P106S mutant vs natural EPSPS
T2 sequence (Q95AK0 43-445 P107S): T1 sequence (Q95AK0 43-445) with P65S
Description: (§9) Figure 2 Characteristics of EPSPS with different mutations (WT, P106S, P106L, and TIPS) from purified enzyme extracts of Escherichia coli variants. […] Reactions were detected as phosphate concentrations based on a standard curve (y = 97.049x − 0.4245, R^2 = 0.99). This experiment was repeated twice with three biological replicates.
as §1, with “A).” for “A). The suspension was sonicated and centrifuged at 12,000× g for 30 min, the supernatant was filtered through a 0.22 µm membrane and passed through a HiTrap His column (10318950; Cytiva, Global Life Sciences Solutions USA, LLC., Marlborough, MA, USA).”

[10] = target: T3, His-tagged recombinant EiEPSPS, Pro106Leu (LL) (Eleusine indica, UniProt Q95AK0, P107L); experiment: EPSPS Michaelis-Menten kinetics, Pro106Leu; format: biochemical; settings: P106L mutant vs natural EPSPS
T3 sequence (Q95AK0 43-445 P107L): T1 sequence (Q95AK0 43-445) with P65L
Description: as §9
as §1, with “A).” for “A). The suspension was sonicated and centrifuged at 12,000× g for 30 min, the supernatant was filtered through a 0.22 µm membrane and passed through a HiTrap His column (10318950; Cytiva, Global Life Sciences Solutions USA, LLC., Marlborough, MA, USA).”

[11] = target: T4, His-tagged recombinant EiEPSPS, Thr102Ile + Pro106Ser (IISS) (Eleusine indica, UniProt Q95AK0, P107S/T103I); experiment: EPSPS Michaelis-Menten kinetics, Thr102Ile + Pro106Ser; format: biochemical; settings: TIPS mutant vs natural EPSPS
T4 sequence (Q95AK0 43-445 T103I/P107S): T1 sequence (Q95AK0 43-445) with T61I, P65S
Description: as §9
as §1, with “A).” for “A). The suspension was sonicated and centrifuged at 12,000× g for 30 min, the supernatant was filtered through a 0.22 µm membrane and passed through a HiTrap His column (10318950; Cytiva, Global Life Sciences Solutions USA, LLC., Marlborough, MA, USA).”

[12] = pH 7.5, read-out: Kon, association rate constant

Sequence of E. indica EPSPS Pro106Ser (P106S) mutant, recombinant expressed in E. coli (Q95AK0 entry or part of it P107S): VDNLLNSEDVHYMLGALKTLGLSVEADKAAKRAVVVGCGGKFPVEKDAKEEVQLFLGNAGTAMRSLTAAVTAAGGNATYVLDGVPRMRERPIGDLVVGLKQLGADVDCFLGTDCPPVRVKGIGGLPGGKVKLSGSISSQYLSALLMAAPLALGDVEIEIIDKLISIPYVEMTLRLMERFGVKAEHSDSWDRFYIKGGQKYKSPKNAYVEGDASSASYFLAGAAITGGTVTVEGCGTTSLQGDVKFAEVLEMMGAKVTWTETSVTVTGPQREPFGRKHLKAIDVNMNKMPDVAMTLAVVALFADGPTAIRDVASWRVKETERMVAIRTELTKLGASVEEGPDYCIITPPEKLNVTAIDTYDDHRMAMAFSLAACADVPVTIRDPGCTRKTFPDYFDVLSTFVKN
Sequence of E. indica EPSPS Thr102Ile + Pro106Ser (TIPS) mutant, recombinant expressed in E. coli (Q95AK0 entry or part of it T103I/P107S): as the sequence (Q95AK0 entry or part of it P107S) above, with T61I counted along it
Sequence of E. indica EPSPS Pro106Leu (P106L) mutant, recombinant expressed in E. coli (Q95AK0 entry or part of it P107L): as the sequence (Q95AK0 entry or part of it P107S) above, with S65L counted along it

Structure (SMILES) | Kd [1] [µM] | Kd [2] [µM] | Kd [3] [µM] | Kd [4] [µM] | x0, herbicide dose required for 50% plant growth reduction (GR50) [5] [g a.e. ha^-1] | x0, herbicide dose required for 50% plant growth reduction (GR50) [6] [g a.e. ha^-1] | x0, herbicide dose required for 50% plant growth reduction (GR50) [7] [g a.e. ha^-1] | shikimate accumulation in leaf tissues (wild type (WT) E. indica) [µg/g] | Kd ([1]; Wild type EPSPS, Octet SSA biosensors, HEPES pH 7.5, read-out: KD, dissociation constant (KD = Koff/Kon)) [µM] | kon ([1]; Wild type EPSPS, Octet SSA biosensors, HEPES pH 7.5, read-out: Kon, association rate constant) [M⁻¹ s⁻¹] | kon [2, 12] [M⁻¹ s⁻¹] | kon [3, 12] [M⁻¹ s⁻¹] | kon ([4]; Thr102Ile + Pro106Ser EPSPS, Octet SSA biosensors, HEPES pH 7.5, read-out: Kon, association rate constant) [M⁻¹ s⁻¹] | Kd [8] [µM] | Km (PEP) fold relative to natural EPSPS [9] [fold] | Km (PEP) fold relative to natural EPSPS [10] [fold] | Km (PEP) fold relative to natural EPSPS [11] [fold]
O=C(O)CNCP(=O)(O)O [Glyphosate, glyphosate] | 58 | 28 | 25 | 23 | 707.2 ± 122.1 | 540.5 ± 25.6 | 3272.9 ± 164.1 | 366.4 | – | – | – | – | – | – | – | – | –
C=C(OP(=O)(O)O)C(=O)O [PEP, phosphoenolpyruvate] | – | 1100 | 1200 | 2000 | – | – | – | – | 3100 | 8 | 31.3 | 31.8 | 33 | 1100 to 3100 | 0.7 | 2.4 | 4.1
